From patent US5079260A, “Method for treating inflammation and compounds and compositions suitable for use therein” (Nova Pharmaceutical Corporation, priority 1990, dated 1992)
Counter-ions that a name gives are not always drawn.

Experiments:
[1] = test system: Ear Edema Caused by Arachidonic Acid; test: Inhibition of Ear Edema Caused by Arachidonic Acid (II), Table 8; type: in vivo, CF-1 mice; conditions: i.p., sixty minutes
Method: Inhibition of Ear Edema Caused by Arachidonic Acid (II)
CF-1 mice, 25-30 g body weight, six animals per group, were used. The requisite amount of the test compound was dissolved is dimethyl sulfoxide or 0.5% methylcellulose and 100 μL of the solution was injected intraperitoneally 30 minutes prior to the administration of 100 mg/kg of arachidponic acid. A solution of this irritant, b 100 mg/mL in ethanol, was applied to the surface of the ear, 5 μL to the upper surface and 5 μL to the lower surface. After sixty minutes, the thickness of the ear was measured to 0.01 mm by a micrometer with the loose drag positioned at the lateral-most edge of the mid-point of the pinna. Data were calculated as the percent inhibityion by the test compound of increased ear thickness compared to control animals recieveing only the irritant.

[2] = test system: Ear Edema Caused by Oxazolone; test: Inhibition of Ear Edema Caused by Oxazolone (II), Table 10; type: in vivo, CF-1 mice; conditions: i.p., 24 h
Method: Inhibition of Ear Edema Caused by Oxazolone (II)
CF-1 mice, 25-30 g body weight, five to six animals per group were used. The mice were sensitized to the irritant two weeks prior to the test by dribbling 100 μL of a 3% solution of oxazolone in acetone onto the abdominal skin of the animal. Test compounds were administered intraperitoneally as follows. […] The irritant, 3% oxazolone in acetone, was added to the surface of the ear, 5 μL added to the upper surface and 5 μL added to the lower surface. After twenty four hours, the thickness of the ear was measured to 0.01 mm by a micrometer with loose drag, positioned at the lateral-most edge of the mid-point of the pinna. Data were calculated as the inhibition of increased ear thickness compared to control animals' receiving only the irritant.

[3] = test system: Reverse Passive Artus Reaction; test: Reverse Passive Artus Reaction (II), Table 11; type: in vivo, Male CD rats; conditions: inhibition of blueing, i.p.
Method: Reverse Passive Artus Reaction (II) Male CD rats weighing between 200 and 250 g were used. […] The animals were anesthetized inhalationally with isoflurane and then injected through the penile vein with 1 mL of a solution of 2.5 mg of Evan's blue dye and 5.0 mg of human serum albumin in 1 mL of saline. This treatment was followed immediately by intracutaneous injections of 0.03 mL of anti-human albumin diluted to contain 3.65 mg of antibody at 3 sites along the midline back. Anesthesia was terminated and after three hours, the animals were sacrificed. The skin was removed and the blue stained areas cut out. The skin patches were soaked overnight in stoppered tubes containing 1 mL of 1 N potassium hydroxide at 37° C. Then 9 mL of a mixture of five parts of a 0.6 N phosphoric acid and thirteen parts of acetone were added to the tubes. The tube contents were agitated and centrifuged, and the absorbance measured at 620 nm. The data were calculated as inhibition of blueing by test compound compared to control animals receiving only antigen and antibody.

[4] = test system: Ear Edema Caused By Tetradecanoylphorbol Acetate; test: Inhibition of Ear Edema Caused by Tetradecanoylphorbol Acetate (II), Table 7; type: in vivo, CF-1 Mice; conditions: 3 h; for % Inhibition Intraperitoneal: i.p.
Method: Inhibition of Ear Edema Caused by Tetradecanoylphorbol Acetate (II)
CF-1 Mice, 25-30 g body weight, six animals per group were used. Test compounds were administered intraperitoneally or topically as follows. For intraperitoneal administration, the test compound was dissolved in dimethyl sulfoxide or 0.5% methylcellulose and 100 microliters was injected 30 minutes prior to irritant (100 mg/kg, i.p.). […] A solution of the irritant, tetradecanoylphorbol acetate, 200 μg/mL, was added to the surface of the ear, 5 μL to the upper surface and 5 μL to the lower surface. After three hours, the thickness of the ear was measured to 0.01 mm by a micrometer with loose drag, positioned at the lateral-most edge of the mid-point of the pinna. Data were calculated as the inhibition of increased ear thickness compared to control animals receiving only the irritant.

[5] = test system: Ear Edema Caused by Xylene; test: Inhibition of Ear Edema Caused by Xylene (II), Table 9; type: in vivo, CF-1 mice; conditions: i.p., 2 h
Method: Inhibition of Ear Edema Caused by Xylene (II)
CF-1 mice, 25-30 g body weight, six animals per group, were used. The requisite amount of the test compound was dissolved is dimethyl sulfoxide or 0.5% methylcellulose and 100 μL of the solution was injected intraperitoneally 30 minutes prior to the administration the irritant. The irritant xylene was applied to the surface of the ear, 20 μL to the upper surface and 20 μL to the lower surface, After two hours, the thickness of the ear was measured to 0.01 mm by a micrometer with the loose drag positioned at the lateral-most edge of the mid-point of the pinna. Data were calculated as the percent inhibition by the test compound of increased ear thickness compared to control animals receiving only the irritant.

Compound | % Inhibition Intraperitoneal ([1]; 100 mg/kg) | % Inhibition Intraperitoneal ([3]; 100 mg/kg) | % Inhibition Intraperitoneal ([4]; 100 mg/kg) | % Inhibition Intraperitoneal ([2]; 10 mg/kg) | % Inhibition Intraperitoneal ([2]; 30 mg/kg) | % Inhibition Intraperitoneal ([2]; 100 mg/kg) | % Inhibition Intraperitoneal ([4]; 10 mg/kg) | % Inhibition Intraperitoneal ([4]; 30 mg/kg) | % Inhibition Intraperitoneal ([1]; 10 mg/kg) | % Inhibition Intraperitoneal ([1]; 30 mg/kg) | % Inhibition ([5]; 10 mg/kg) | % Inhibition ([5]; 30 mg/kg) | % Inhibition ([5]; 100 mg/kg) | other results
COc1ccc2c(c1)c(CC(=O)O)c(C)n2C(=O)c1ccc(Cl)cc1 [Indomethacin, reference compound] | 1% | – | – | – | – | – | – | – | – | – | – | – | – | % Inhibition Intraperitoneal ([2]; 1 mg/kg): 4%; % Inhibition Intraperitoneal ([2]; 3 mg/kg): 35%; % Inhibition Intraperitoneal ([3]; 1 mg/kg): 5%; % Inhibition Intraperitoneal ([3]; 3 mg/kg): 26%; % Inhibition Intraperitoneal ([3]; 10 mg/kg): 27%
COC(=O)[C@H](CC(C)C)NC(=O)OCC1c2ccccc2-c2ccccc21 [NPC 15326, N-[(9H-Fluoren-9-ylmethoxy)carbonyl]-L-leucine methyl ester] | – | 19% | – | – | – | – | – | – | – | – | – | – | – | –
CC(C)CC(CO)NC(=O)OCC1c2ccccc2-c2ccccc21 (centres unmarked) [NPC 15427, 2-{N-[(9H-Fluoren-9-ylmethoxy)carbonyl]amino}-4-methylpentanol] | – | 14% | – | – | – | – | – | – | – | – | – | – | – | –
CC(C)C[C@H](NC(=O)OCC1c2ccccc2-c2ccccc21)C(=O)OCC(O)CO (some centres unmarked) [NPC 15430] | – | 48% | – | – | – | – | – | – | – | – | – | – | – | –
CC(C)C[C@H](NC(=O)CCC1c2ccccc2-c2ccccc21)C(=O)O [NPC 15476, N-[3-(9H-Fluoren-9-yl)propionyl]-L-leucine] | – | 56% | 64% | 0% | 5% | 43% | – | – | – | – | – | – | – | –
Cc1ccc2c(c1)C(COC(=O)N[C@@H](CC(C)C)C(=O)O)c1ccccc1-2 (stereo partly drawn) [NPC 15477, N-{[9H-(2-Methylfluoren-9-yl)methoxy]carbonyl}-L-leucine] | 82% | 53% | 72% | 3% | 14% | 43% | 35% | 37% | 10% | 58% | 41% | 53% | 69% | –
COc1ccc2c(c1)C(COC(=O)N[C@@H](CC(C)C)C(=O)O)c1ccccc1-2 (stereo partly drawn) [NPC 15489, N-[(2-Methoxyfluoren-9-ylmethoxy)carbonyl]-L-leucine] | – | 64% | – | – | – | – | – | – | – | – | – | – | – | –
CC(C)C[C@H](NC(=O)OCCC1c2ccccc2-c2ccccc21)C(=O)O [NPC 15521, N-[(9H-Fluoren-9-ylethoxy)carbonyl]-L-leucine] | 69% | 63% | 77% | 39% | 45% | 74% | 33% | 37% | 34% | 41% | 20% | 15% | 57% | –
CC(C)C[C@H](NC(=O)OCC1c2ccccc2-c2ccccc21)C(=O)OC(C)(C)C [NPC 15527, N-[(9H-Fluoren-9-ylmethoxy)carbonyl]-L-leucine t-butyl ester] | – | 4% | 74% | 31% | 33% | – | 54% | 54% | 21% | 47% | 42% | 34% | 50% | % Inhibition Intraperitoneal ([1]; 110 mg/kg (so in the source)): 68%; % Inhibition Intraperitoneal ([2]; 110 mg/kg (so in the source)): 54%
CNC(=O)[C@H](CC(C)C)NC(=O)OCC1c2ccccc2-c2ccccc21 [NPC 15529, N-[(9H-Fluoren-9-ylmethoxy)carbonyl]-L-leucine methylamide] | 29% | 0% | 78% | 32% | 41% | 76% | 67% | 67% | 16% | 32% | 50% | 47% | 50% | –
CC(C)(C)[C@H](NC(=O)OCC1c2ccccc2-c2ccccc21)C(=O)O [NPC 15573, N-[(9H-Fluoren-9-ylmethoxy)carbonyl]-L-tert-leucine] | 42% | 50% | 75% | – | 28% | 48% | 39% | 52% | 27% | 32% | 23% | 17% | – | % Inhibition, topical ([4]; dose 10 (mg/kg)): 20%; % Inhibition, topical ([4]; dose 30 (mg/kg)): 31%; % Inhibition, topical ([4]; dose 100 (mg/kg)): 38%
Cc1cccc2c1C(COC(=O)N[C@@H](CC(C)C)C(=O)O)c1ccccc1-2 (stereo partly drawn) [NPC 15638, N-{[9H-(1-Methylfluoren-9-yl)methoxy]carbonyl}-L-leucine] | 65% | 68% | 62% | – | 67% | 74% | 23% | 12% | – | – | 37% | 66% | 82% | –
Cc1cccc2c1-c1c(C)cccc1C2COC(=O)N[C@@H](CC(C)C)C(=O)O [NPC 15670] | – | 82% | 150% | -36% | 43% | – | 27% | 117% | – | – | 78% | 46% | 50% | –
CC(C)C[C@H](NC(=O)CCC1c2ccccc2-c2ccccc21)C(=O)O [NPC 15672, N-{9H-[3-Fluorenyl-9)propionyl]}-L-leucine, sodium salt] | – | – | – | – | – | – | 54% | 21% | – | – | – | – | – | % Inhibition Intraperitoneal ([4]; 100 mg/kg, sodium salt): 66%; % Inhibition Intraperitoneal ([2]; 10 mg/kg, sodium salt): 11%; % Inhibition Intraperitoneal ([2]; 30 mg/kg, sodium salt): 19%; % Inhibition Intraperitoneal ([2]; 100 mg/kg, sodium salt): 35%; % Inhibition Intraperitoneal ([3]; 100 mg/kg, sodium salt): 34%
